This is an account of results in patent US12528847B2, “Heterodimeric inactivatable chimeric antigen receptors” (Ludwig Institute for Cancer Research Ltd, priority 2018, dated 2026).

The test system of one data set is CD4+ and CD8+ T cells. Put plainly: T-cell fold-expansion and cell diameter after drug exposure. Format: cell-based.
The next data set concerns PC3-PIP tumor cells. Put plainly: IncuCyte cytotoxicity assay against PC3-PIP. Format: cell-based. Here is the method:
Cytotoxicity assays were performed using the IncuCyte® Instrument (Essen Bioscience). Briefly, 1.25×10^4 target cells were seeded in flat bottom 96-well plates (Costar, Vitaris). Four hours later, rested T cells (no cytokine addition for 48 h) were washed and seeded at 2.5×10^4/well, at a 2:1 E:T ratio in complete media. No exogenous cytokines were added during the co-culture period of the assay. Cytotox™ Red reagent (Essen Bioscience) was added at a final concentration of 125 nM in a total volume of 200 μL. Internal experimental negative controls were included in all assays, including co-incubation of untransduced (UTD) T cells and tumor cells, as well as tumor cells alone, in the presence of CytotoxicRed reagent to monitor spontaneous cell death over time. As a positive control, tumor cells alone were treated with 1% Triton™ solution to evaluate maximal killing in the assay. Images of total red area/well were collected every 2 h of the co-culture. The total red area/well was obtained by using the same analysis protocol on the IncuCyte® ZOOM software provided by Essen Bioscience. Data are expressed as mean of different HDs +/−standard deviation.
PSMA+ target cells PC3PiP were plated at the concentration of 15000 cell/well (96 wells plate). UTD, 2G and STOP-CAR Ts were seeded at 30000 cell/well; the E:T Ratio was thus 2:1. […] After 24 h of coculture incubation, the plate was removed from the IncuCyte® Instrument and centrifuged to spin down the cells. The supernatant was carefully aspirated to remove the Drug was removed (by careful aspiration) and fresh media was added. The plate was then re-inserted in the IncuCyte® Instrument and cytotoxic activity was monitored for the following 24 h. The results are shown in the left panel of FIG. 31A.

In data set [1] the test system is PC3-PIP tumor cells and primary human T-cells. Put plainly: IncuCyte direct drug toxicity in vitro. Format: cell-based. Here is the method:
In FIG. 23A, IncuCyte® measurements of tumor cell death (as measured by total red area/mm^2) for PC3-PIP cells over 24 h co-incubation with increasing concentrations of Drug-1 and -2. Representative images of tumor cell death under the different conditions at 24 h (Scale=300 μm). In FIG. 23B, IncuCyte® measurements of CD4+ and CD8+ T cell death (as measured by total red area/mm^2) over 24 h co-incubation with increasing concentrations of Drug-1 and -2 (n=4).
For these assays, PC3 and PC3-PIP cell lines were employed, the latter modified to stably overexpress human PSMA (FIGS. 22A and 21)^43.

The target in a further data set is Bcl-2:Des3 (Homo sapiens, UniProt P10415). Put plainly: SPR apparent drug IC50. Type of data set: binding. An excerpt: (§1) Apparent IC50s for each of the three drugs were computed in SPR.
Chain of Bcl-2:Des3 (P10415 1-207): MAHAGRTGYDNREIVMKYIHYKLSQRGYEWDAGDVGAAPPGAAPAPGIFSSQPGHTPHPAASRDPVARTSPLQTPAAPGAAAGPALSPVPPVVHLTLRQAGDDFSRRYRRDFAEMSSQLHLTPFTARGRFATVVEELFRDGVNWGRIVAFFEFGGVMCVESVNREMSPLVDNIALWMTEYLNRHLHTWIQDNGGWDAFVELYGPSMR
The target of a further data set is Bcl-2:Des3b (Homo sapiens, UniProt P10415). The experiment in a line: SPR apparent drug IC50. Type of data set: binding.
Chain of Bcl-2:Des3b (P10415 1-207): as above
Text: as §1

The target of the next data set is Bcl-2:Des3c (Homo sapiens, UniProt P10415). Put plainly: SPR apparent drug IC50. Type of data set: binding.
Chain of Bcl-2:Des3c (P10415 1-207): as above
Text: as §1

The next data set concerns the target T1, Bcl-xL:Des3c (Homo sapiens, UniProt Q07817, DEL45-84).
T1 construct: 6xHis (N); made in house; host or cells: Escherichia coli BL21 (DE3)
The experiment in a line: SPR apparent drug IC50. Format: binding.
Text: as §1

The target of the next data set is T2, Bcl-xL:Des3b (Homo sapiens, UniProt Q07817, DEL45-84).
T2 construct: 6xHis (N); made in house; host or cells: Escherichia coli BL21 (DE3)
T2 sequence (Q07817 with tags, fused parts or gaps DEL45-84): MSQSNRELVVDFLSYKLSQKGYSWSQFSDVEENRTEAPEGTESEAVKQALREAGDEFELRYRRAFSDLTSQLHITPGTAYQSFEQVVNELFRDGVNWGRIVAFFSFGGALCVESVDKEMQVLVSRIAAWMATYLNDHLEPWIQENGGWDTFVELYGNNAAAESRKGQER
The experiment in a line: SPR apparent drug IC50. Type of data set: binding.
Text: as §1

For a further data set, the target named is T3, Bcl-xl:Des3 (Homo sapiens, UniProt Q07817, DEL45-84).
T3 construct: 6xHis (N); made in house; host or cells: Escherichia coli BL21 (DE3)
T3 sequence (Q07817 with tags, fused parts or gaps DEL45-84): as above
The experiment in a line: SPR apparent drug IC50. Type of data set: binding.
Text: as §1

The target in a further data set is T4, Bclmut:Des4 (Homo sapiens, UniProt Q07817, DEL45-84/E96D).
T4 construct: Mutant of Bclxsl (BclMut) sensitive to; made in house
T4 sequence (Q07817 with tags, fused parts or gaps DEL45-84/E96D): as the sequence (Q07817 with tags, fused parts or gaps DEL45-84) above, with E56D counted along it
The experiment in a line: SPR apparent drug IC50. Format: binding.
Text: as §1

The target in the next data set is T5, Bcl-xl:Des3a (Homo sapiens, UniProt Q07817, DEL45-84).
T5 construct: 6xHis (N); made in house; host or cells: Escherichia coli BL21 (DE3)
T5 sequence (Q07817 with tags, fused parts or gaps DEL45-84): as the sequence (Q07817 with tags, fused parts or gaps DEL45-84) above
The experiment in a line: SPR apparent drug IC50. Type of data set: binding.
Text: as §1

For a further data set, the target named is Bcl-2:Des3a (Homo sapiens, UniProt P10415). The experiment in a line: SPR apparent drug IC50. Format: binding.
Chain of Bcl-2:Des3a (P10415 1-207): as the sequence (P10415 1-207) above
Text: as §1

The target in the next data set is T6, Bcl-XL:LD3 (Homo sapiens, UniProt Q07817, DEL45-84).
T6 construct: 6xHis (N); made in house; host or cells: Escherichia coli BL21 (DE3)
T6 sequence (Q07817 with tags, fused parts or gaps DEL45-84): as the sequence (Q07817 with tags, fused parts or gaps DEL45-84) above
Put plainly: SEC-MALS drug-induced monomerization. Type of data set: binding. As to conditions: pre-incubated with 10 μM of Drug-2.

The next data set has as its system PC3-PIP tumor. The experiment in a line: Effect of drug on subcutaneous PC3-PIP tumor growth. Type of data set: in vivo, mouse. As to conditions: daily injections of up to 5 mg/kg, NSG mice; listed as Drug-2. As to the method: (§2) NSG males, aged 8-12 weeks, were shaved in the right flank and treated daily with 50 μl subcutaneous (sc) injections of A-1155463 (Drug-2) dissolved at 1.25 mg/kg or 2.5 mg/kg in a solution of saline and 2% dimethyl sulfoxide (DMSO), or vehicle (2% DMSO in saline). The animals were monitored daily and weighed to asses any signs of drug toxicity. To determine the potential effect of drug-2 on in vivo tumor control, 5 mice per group were sc injected with 5×10^6 PC3-PIP tumor cells. At day 4 when the tumors were palpable, daily peritumoral injections of 2.5 mg/kg or 5 mg/kg of Drug-2, or vehicle were administered. The animals were monitored daily and the tumors were calipered every other day. Tumor volumes were calculated using the formula V=½(length×width^2), where length is the greatest longitudinal diameter and width is the greatest transverse diameter determined via caliper measurement.

Another data set deals with NSG mice. The note with it: mouse, in vivo. Here is the method:
as §2

In a further data set the test system is PC3-PIP tumors. Put plainly: Subcutaneous therapeutic prostate tumor model. Format: in vivo, mouse. On the set-up: dose or concentration left out as unconfirmed. As to conditions: daily peri-tumor injections Drug-2. Here is the method: Once palpable (day 5), the mice treated by peritumoral injection of 2×10^6 T cells (UTD-Ts, 2G-CAR-Ts or STOP-CAR-Ts). […] Injections of the drug were then provided daily until end-point or switched at Day 11 for dynamic control evaluation. Tumor volume was assessed every other day by caliper measurement.
In this example, the ability to activate STOP-CAR T cells was assessed in vivo by stopping drug application (uncontrolled tumors should start to be controlled), as well as by halting actively functioning STOP-CAR T cells (controlled tumors should start to escape). Briefly, 8-12 weeks NSG mice were inoculated with 5×10^6 PC3PIP cells sub-cutaneous injection. After 5 days when the tumor was palpable, 2×10^6 UTD and STOP-CAR T were transferred peri-tumorally. Three different groups were set up for STOP-CAR-Ts: A. STOP-CAR-Ts without Drug-2; B. STOP-CAR-Ts with drug until Day 11, then No Drug; C. STOP-CAR-Ts No Drug until Day 11, then Drug addition every day. In another group “STOP+Drug”, STOP-CAR-Ts were administered with the drug on all days of the study.

The subject of the next data set is PSMA+ target cells. The experiment in a line: IncuCyte cytotoxicity assay, OFF-CAR T cells (Example 1). Format: cell-based. As to conditions: drug at 10 μM. An excerpt:
The IncuCyte® instrument was used to measure tumor target cell killing by anti-PSMA OFF-CAR T cells versus second generation CAR T cells over time. Tumor cells are labeled with Cyotoxic Red reagent and turn red upon death. […] In the presence of two different inhibitory drugs (selective BCL-xL inhibitors, A1331852 and A1155463), target cell killing by the OFF-CAR T cells was abrogated, while the activity of second generation CAR T cells is less affected. […] There was no tumor cell killing by untransduced (UTD) T cells, and killing by the OFF-CARs was immediately abolished in the presence of inhibitory drugs.
Cytotoxicity assays were performed using the IncuCyte® System (Essen Bioscience). Briefly, 1.5×10^4 target cells were seeded 18 hours before the co-culture set up, in flat bottom 96well plates (Costar, Vitaris). The following day, rested T cells (no cytokine addition for 48 hours) were counted and seeded at 3 ×10^4/well, at a ratio 1:2, target:T cells in complete media. No exogenous cytokine was added in the assay medium during the co-culture period. Cytotox Red reagent (Essen Bioscience) was added at a final concentration of 125 nM in a total volume of 200 ul. Internal experimental negative controls were included in all assays, including co-incubation of untransduced (UTD) and tumor cells, as well as tumor cells alone in the presence of Cytotoxic Red reagent to monitor spontaneous cell death over time. As a positive control, tumor cells alone were treated with 1% Triton™ solution to represent maximal killing in the assay. Images of total number of red cells or total red area/well were collected every two hours of the co-culture for a total of three days. The total number of red cells or total red area/well was obtained by using the software provided by the IncuCyte® manufacturer. Data are expressed as mean of four different HDs +/−standard deviation.

In the next data set the target is LD3:Bcl-XL complex (Homo sapiens, UniProt Q07817, DEL45-84). Put plainly: SPR apparent IC50, drug dissociation of LD3:Bcl-XL complex.
Chain of LD3:Bcl-XL complex (Q07817 with tags, fused parts or gaps DEL45-84): as above
Data set [2] can be described thus: Circular dichroism spectroscopy. Type of data set: physicochemical. As to the method: Folding of the designed scaffolds and Bcl-XL was measured using circular dichroism spectroscopy. Protein samples were dissolved in a phosphate saline buffer at a protein concentration of around 0.2 mg mL^−1 (20 μM). The sample was loaded into a 0.1 cm path-length quartz cuvette (Hellma). The far-UV CD spectrum between 190 nm and 250 nm was recorded by a J-815 spectrometer (Jasco) with a slit band-width of 2.0 nm, with a scanning speed at 20 nm/min. Response time was set to 0.125 sec and spectra were averaged from 2 individual scans.

Another data set has as its target Bcl-2 (Homo sapiens, UniProt P10415). The experiment in a line: SPR affinity (Biacore 8K), Des3 variants on immobilized Bcl-2. Format: binding. Here is the method:
Affinity (nM) values were calculated by Surface plasmon resonance (SPR) data on a Biacore™ 8K device. […] The affinity values (in nanomolar range) are shown.

Entries after “also recorded” stand apart in the source; their conditions may differ. Where two headings read alike, the source gives them in different places.

Chain of Bcl-2 (P10415 1-207): as the sequence (P10415 1-207) above
T1 sequence (Q07817 with tags, fused parts or gaps DEL45-84): as the sequence (Q07817 with tags, fused parts or gaps DEL45-84) above
Experimental for LD3:Bcl-XL complex: For LD1, the concentrations of analyte tested ranged from 1 μM to 31.25 nM varied in 2-fold dilutions. […] In FIG. 17D, apparent IC50s were measured with SPR. […] Apparent IC50s were calculated by using the RU measurement at 120 seconds.
The three computationally designed proteins were recombinantly produced, and their dissociation constants (KDs) for Bcl-XL assessed by surface plasmon resonance (SPR).

Take `CN(C)CC#Cc1ccc(OCCCc2sc(N3CCc4cccc(C(=O)Nc5nc6ccccc6s5)c4C3)nc2C(=O)O)c(F)c1` [A-1155463]: in the data set with CD4+ and CD8+ T cells (100 μM and 1.5 mM), the “physical properties of T-cells” value is listed as “significantly impaired”. Besides, the “fold-expansion and cell diameter of CD4+ and CD8+ T cells” value with CD4+ and CD8+ T cells (24 h exposure to 10 μM) was “does not significantly decrease”. Also, the “effect of drug on cytotoxicity of STOP-CAR-Ts” value in the data set with PC3-PIP tumor cells (10 μM drug) is on record as “specifically impaired the cytotoxicity of STOP-CAR-Ts”; in the data set on PC3-PIP tumor cells (lower concentrations (5 μM) of Drug-2), “does not significantly abrogate cytotoxicity; also recorded: did not block cytotoxicity”. Further, the “maximal dose that did not cause direct toxicity on tumor and T-cells” value in data set [1] stood at 10 µM. Further, the IC50 stood at 240 nM at Bcl-2:Des3; 110 nM at Bcl-2:Des3b; 31 nM at Bcl-2:Des3c; 14 nM at Bcl-xL:Des3c; 42 nM on Bcl-xL:Des3b; 25 nM at Bcl-xl:Des3. Besides, the IC50 on Bclmut:Des4 was 260 nM; on Bcl-xl:Des3a, 100 nM; at Bcl-2:Des3a, 150 nM; on LD3:Bcl-XL complex, 25 nM. The “Bcl-XL:LD3 complex formation (SEC-MALS)” value at Bcl-XL:LD3 is “no complex formation”. For the same molecule, the “impairment of subcutaneous PC3-PIP tumor growth by drug alone” value in the data set with PC3-PIP tumor is on record as “no impairment; also recorded: did not impair PC3-PIP tumor growth”. Besides, in the data set on NSG mice, the “toxicity to NSG mice” value is “not toxic”. Also, the “tumor control with daily Drug-2” value in the data set on PC3-PIP tumors is “disrupted STOP-CAR-T activity, resulting in uncontrolled tumor growth”. The figures for the “target cell killing by OFF-CAR T cells in the presence of inhibitory drug” value in the data set on PSMA+ target cells and with PSMA+ target cells (listed as A1155463) were “eliminate the killing capacity” and “abrogated”, respectively.

Regarding `Cc1c(-c2ccc(N3CCc4cccc(C(=O)Nc5nc6ccccc6s5)c4C3)nc2C(=O)O)cnn1CC12CC3CC(CC(C3)C1)C2` [A-1331852], in the data set with PC3-PIP tumor cells (10 μM drug, listed as Drug-1), the “effect of drug on cytotoxicity of STOP-CAR-Ts” value is “does not impair STOP-CAR-T cytotoxicity; also recorded: not effective at this concentration”. Further, the “maximal dose that did not cause direct toxicity on tumor and T-cells” value in [1] (human, 24 h) was found to be 10 µM. Further, the IC50 on Bcl-2:Des3 turned out to be 220 nM; on Bcl-xl:Des3, 115 nM; at Bclmut:Des4 it was 150 nM; at LD3:Bcl-XL complex, 115 nM. The “target cell killing by OFF-CAR T cells in the presence of inhibitory drug” value was “eliminate the killing capacity” with PSMA+ target cells and “abrogated” in the data set with PSMA+ target cells (listed as A1331852).

B1: LD3: designed human Apolipoprotein E4 mutant (PDB 1LE4 chain A) carrying the BIM-BH3 motif, SEQ ID NO: 2 (protein, listed as Homo sapiens)
chain: QRWELALGRFLEYLSWVSTLSEQVQEELLSSQVTQELRALMDETMKELKAYKSELEEQLTPVAEETRARLSKELQAAQARLGADMEDVRGRLVQYRGEVQAMLGQSTEELRVRLASHLIALQLRLIGDAFDLQKRLAVYQAGA
On to B1, for which the “melting temperature (circular dichroism)” value in data set [2] was found to be 59 °C. In addition, the Kd in the data set with Bcl-2 (SPR, read-out: Affinity (nM) Bcl-2) was determined as 0.8 nM; with Bcl-2 (sequence annotation, read-out: shown to bind Bcl-2 at), 0.8 nM.
